Consider six compounds from US20100076023A1, “AMORPHOUS SOLID COMPOSITION CONTAINING A PYRAZOLE-3-CARBOXAMIDE IN AMORPHOUS FORM AND STABILISING CARRIERS” (SANOFI-AVENTIS, priority 2007, published 2010).

Each structure is given as a SMILES string. Converted amounts (≈) assume the structure as drawn.

A short description of data set [1]: comparative tests on intrinsic dissolution. The format is physicochemical. Conditions: Acetonitrile/H2O (60/40), 500 ml, 37° C., 75 revolutions/minute, pellets 0.5 cm^2, UV at 246 nm. The procedure: A. Tests for evaluating the rate of intrinsic dissolution are carried out with the amorphous rimonabant obtained in Example 9 and the rimonabant in its crystalline form.
These tests are carried out under the following conditions: • Solution: Acetonitrile/H2O (60/40) • Volume: 500 ml • Temperature: 37° C. • Rotation speed: 75 revolutions/minute • Surface area of the pellets: 0.5 cm^2 • Compressive force on the pellets: 2 tonnes, 20 seconds • Assay method: UV at 246 nm • Equipment: Vankel “VK700”-Kontron “Uvikon 941+”
B. Tests are carried out with the amorphous surinabant obtained in Example 10 and the surinabant in its crystalline form. The test conditions are identical to those of the comparative tests carried out for rimonabant (see preceding section A).

A short description of data set [2]: stability under stressing conditions (100° C., X-ray powder diffractometry). Conditions: same stressing conditions. The class given is physicochemical. The procedure: The apparatus used is a Bragg-Brentano-type DT 500 diffractometer from Siemens®. The line used is Kα1 of copper obtained at an accelerating voltage of 30 mA-40 kV. The diffractograms are recorded for angles of between 2° and 40° at the rate of 1°.min^−1 in Bragg 2-theta.
The physicochemical stability of the solid solution of powder obtained is determined at 100° C. without a controlled atmosphere, for 52 days. Several samples are placed in an oven adjusted to the temperature of 100° C. and analyzed at various times by X-ray powder diffractometry.
The physicochemical stability of the solid solution of Example 2 is determined at 100° C. without a controlled atmosphere, for 28 days. Several samples are placed in an oven adjusted to the temperature of 100° C., and are analyzed at various times by powder X-ray diffractometry.

A short description of data set [3]: water-solubility at pH 6.5. The class given is physicochemical. The method, then:
(§1) These compounds are molecules which are relatively water-insoluble; their water-solubilities are respectively 0.1 μg/ml and 1 μg/l at pH=6.5. Furthermore, these compounds have high membrane permeability coefficients: respectively 78×10^−7 cm/s and 96×10^−7 cm/s on the Caco-2 cell model, as described by M. G. Gres et al., in Pharmaceutical Research, 1998, 15(5), 726-733.

Data set [4] in a line: membrane permeability on the Caco-2 cell model. The class given is in vitro ADME. The note with it: human; Caco-2 cell model (Gres et al.); read-out: membrane permeability coefficient. The method, then:
as §1

On to `Cc1c(C(=O)NN2CCCCC2)nn(-c2ccc(Cl)cc2Cl)c1-c1ccc(Cl)cc1` [amorphous rimonabant, N-Piperidino-5-(4-chlorophenyl)-1-(2,4-dichlorophenyl)-4-methylpyrazole-3-carboxamide], for which, in data set [1], the “rate of intrinsic dissolution” value is 1.3 mg.min^−1.cm^−2. As to `CCc1c(C(=O)NN2CCCCC2)nn(-c2ccc(Cl)cc2Cl)c1-c1ccc(Br)cc1` [amorphous surinabant, N-piperidino-5-(4-bromophenyl)-1-(2,4-dichlorophenyl)-4-ethylpyrazole-3-carboxamide], the “time in which it becomes completely crystalline” value in data set [2] is on record as no more than 24 h. Besides, the “rate of intrinsic dissolution” value in data set [1] was found to be 0.85 mg.min^−1.cm^−2.

`Cc1c(C(=O)NN2CCCCC2)nn(-c2ccc(Cl)cc2Cl)c1-c1ccc(Cl)cc1` [crystalline rimonabant, N-Piperidino-5-(4-chlorophenyl)-1-(2,4-dichlorophenyl)-4-methylpyrazole-3-carboxamide]: in data set [1], the “rate of intrinsic dissolution” value turned out to be 0.7 mg.min^−1.cm^−2.

For `CCc1c(C(=O)NN2CCCCC2)nn(-c2ccc(Cl)cc2Cl)c1-c1ccc(Br)cc1` [crystalline surinabant, N-piperidino-5-(4-bromophenyl)-1-(2,4-dichlorophenyl)-4-ethylpyrazole-3-carboxamide], the “rate of intrinsic dissolution” value in data set [1] was found to be 0.2 mg.min^−1.cm^−2. As for `Cc1c(C(=O)NN2CCCCC2)nn(-c2ccc(Cl)cc2Cl)c1-c1ccc(Cl)cc1` [rimonabant, N-Piperidino-5-(4-chlorophenyl)-1-(2,4-dichlorophenyl)-4-methylpyrazole-3-carboxamide], in data set [3], the solubility is 0.1 µg/mL (≈ 0.216 µM). The Papp in data set [4] was determined as 7.8 ×10⁻⁶ cm/s. For `CCc1c(C(=O)NN2CCCCC2)nn(-c2ccc(Cl)cc2Cl)c1-c1ccc(Br)cc1` [surinabant, N-piperidino-5-(4-bromophenyl)-1-(2,4-dichlorophenyl)-4-ethylpyrazole-3-carboxamide], in that order: 1 µg/mL (≈ 1.91 µM) and 9.6 ×10⁻⁶ cm/s.

Broadly, the solubility is the dissolved amount per volume that the medium holds.
